Results: US20050004126A1 (priority 2001, published 2005)
Where “and” joins values, the source holds several entries; their conditions need not be identical. Identical values can stand only once. Counter-ions that a name gives are not always drawn. Like-named read-outs stand apart in the source and are kept apart here.

Columns and labels:
[1] = target: T1, MMP-1FL (full-length interstitial collagenase) (Homo sapiens, UniProt P03956); experiment: Thiopeptolide hydrolysis assay, MMP-1; format: biochemical; settings: read-out: MMP01 IC50
T1 sequence (P03956 100-469): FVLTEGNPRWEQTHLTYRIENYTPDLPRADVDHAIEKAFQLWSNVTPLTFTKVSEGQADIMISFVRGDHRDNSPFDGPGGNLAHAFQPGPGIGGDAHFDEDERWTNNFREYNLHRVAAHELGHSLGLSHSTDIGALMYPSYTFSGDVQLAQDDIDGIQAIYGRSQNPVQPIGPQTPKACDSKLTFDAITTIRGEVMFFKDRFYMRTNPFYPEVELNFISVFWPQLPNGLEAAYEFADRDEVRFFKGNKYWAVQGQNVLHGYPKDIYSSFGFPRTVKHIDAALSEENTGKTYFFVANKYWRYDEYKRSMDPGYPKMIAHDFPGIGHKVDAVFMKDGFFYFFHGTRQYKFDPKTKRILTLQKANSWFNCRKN
Description: (§1) They measure the amount by which a test compound reduces the hydrolysis of a thiopeptolide substrate caused by a matrix metalloproteinase enzyme.
Thiopeptolide substrates show virtually no decomposition or hydrolysis in the absence of a matrix metalloproteinase enzyme. A typical thiopeptolide substrate commonly utilized for assays is Ac-Pro-Leu-Gly-thioester-Leu-Leu-Gly-OEt. A 100 μL assay mixture will contain 50 mM of 2-morpholinoethane sulfonic acid monohydrate (MES, pH 6.0) 10 mM CaCl2, 100 μM thiopeptolide substrate, and 1 mM 5,5′-dithio-bis-(2-nitro-benzoic acid) (DTNB). […] The change in absorbance at 405 nm is monitored on a Thermo Max microplate reader (moleucular Devices, Menlo Park, Calif.) at room temperature (22° C.). […] Assays are carried out with and without matrix metalloproteinase inhibitor compounds, and the amount of hydrolysis is compared for a determination of inhibitory activity of the test compounds.

[2] = target: MMP-3CD (catalytic domain of stromelysin) (Homo sapiens, UniProt P08254); experiment: Thiopeptolide hydrolysis assay, MMP-3; format: biochemical;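 also: inhibition of thiopeptolide substrate (100 µM) cleavage by the MMP-3 catalytic domain, detected with DTNB at pH 6.0 with CaCl2, hydrolysis compared against runs lacking inhibitor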
Description: as §1
(§2) Thiopeptolide substrates show virtually no decomposition or hydrolysis in the absence of a matrix metalloproteinase enzyme. A typical thiopeptolide substrate commonly utilized for assays is Ac-Pro-Leu-Gly-thioester-Leu-Leu-Gly-OEt. A 100 μL assay mixture will contain 50 mM of 2-morpholinoethane sulfonic acid monohydrate (MES, pH 6.0) 10 mM CaCl2, 100 μM thiopeptolide substrate, and 1 mM 5,5′-dithio-bis-(2-nitro-benzoic acid) (DTNB). […] Assays are carried out with and without matrix metalloproteinase inhibitor compounds, and the amount of hydrolysis is compared for a determination of inhibitory activity of the test compounds.

[3] = target: MMP-13CD (catalytic domain of collagenase 3) (Homo sapiens, UniProt P45452); experiment: Thiopeptolide hydrolysis assay, MMP-13;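 also: inhibition of enzymatic thiopeptolide substrate cleavage (100 µM) in pH 6.0 MES buffer with CaCl2 and DTNB, comparing hydrolysis with versus without inhibitor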
Description: as §1, §2

Sequence of MMP-3CD (catalytic domain of stromelysin) (P08254 100-272 limits assumed): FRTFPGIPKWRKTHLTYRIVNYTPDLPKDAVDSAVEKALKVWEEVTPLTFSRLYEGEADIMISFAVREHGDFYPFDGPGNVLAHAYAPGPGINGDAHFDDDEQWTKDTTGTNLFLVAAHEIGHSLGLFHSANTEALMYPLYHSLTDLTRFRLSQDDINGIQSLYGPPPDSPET

Structure (SMILES)	IC50 ([1]; Table 1b) [µM]	IC50 ([2]; Table 1b, read-out: MMP03 IC50) [nM]	IC50 ([3]; MMP13 IC50 (μM), Table 1b) [µM]	IC50 ([1]; Table II) [µM]	IC50 ([2]; Table II, read-out: MMP03 IC50)	IC50 ([3]; MMP13 IC50 (nM), Table II)	IC50 ([2]; MMP03 IC50 (nM), Table II) [nM]
COC(=O)c1ccc(Cn2c(=O)c(C)c3sc(C(=O)NCc4ccc(F)cc4)cn3c2=O)cc1Cl	> 30	> 30000	0.24	–	–	–	–
COc1ccc(CNC(=O)c2ccc(OC)c(C(=O)NCc3ccc(OC)cc3)c2)cc1	–	–	–	> 100	> 100000 nM	0.28 µM	–
COC(=O)COc1ccc(C(=O)OCc2ccccc2)cc1C(=O)OCc1ccccc1	–	–	–	> 100	> 100000 nM	9.25 µM	–
COC(=O)c1ccc(Cn2c(=O)c(C)c3sc(C(=O)NCc4cccc(F)c4)cn3c2=O)cc1	> 30	19000	0.0715	–	–	–	–
Cc1c(=O)n(Cc2ccc(C(=O)OCCN(C)C)cc2)c(=O)n2cc(C(=O)NCc3ccc(F)cc3)sc12	> 100	> 30000	0.094	–	–	–	–
COC(=O)c1ccc(Cn2c(=O)c(C)c3sc(C(=O)NCc4ccc(F)cc4)cn3c2=O)cc1	> 100	17000	0.018	–	–	–	–
COC(=O)c1ccc(Cn2c(=O)c(C)c3sc(C(=O)NCc4ccc(F)cc4)cn3c2=O)cc1C	> 100	18000	0.018	–	–	–	–
COC(=O)c1ccc(Cn2c(=O)c(C)c3sc(C(=O)NCc4ccc(OC)cc4)cn3c2=O)cc1	> 100	65000	0.0106	–	–	–	–
Cc1c(=O)n(Cc2ccc(C(=O)O)cc2)c(=O)n2cc(C(=O)NCc3ccc(F)cc3)sc12	> 100	68000	0.0022	–	–	–	–
COc1cccc(CNC(=O)c2cccc(C(=O)NCc3ccc(C(=O)O)cc3)c2)c1	–	–	–	> 100	> 100000 nM	0.077 µM	–
O=C(NCc1ccccc1)c1cn2c(=O)n(C(=O)c3ccccc3)c(=O)cc2s1	> 30	> 30000	6.7	–	–	–	–
O=C(OCc1ccccc1)C1C[S+]([O-])c2cc(=O)n(Cc3ccccc3)c(=O)n21 (centres unmarked)	> 100	23000	0.072	–	–	–	–
O=C(NCc1ccncc1)C1Cn2c(cc(=O)n(Cc3ccccc3)c2=O)S1 (centres unmarked)	> 100	> 100000	0.59	–	–	–	–
COc1ccc(CNC(=O)c2cn3c(=O)n(Cc4ccccc4)c(=O)c(C=O)c3s2)cc1	> 100	11000	0.0224	–	–	–	–
Cc1c(=O)n(Cc2ccccc2)c(=O)n2cc(C(=O)NCc3ccccc3)sc12	> 100	51000	0.094	–	–	–	–
COc1cccc(CNC(=O)c2cn3c(=O)n(Cc4ccccc4)c(=O)c(C)c3s2)c1	> 30	22000	0.006	–	–	–	–
Cc1c(=O)n(Cc2ccccc2)c(=O)n2cc(C(=O)NCc3ccc(Cl)c(Cl)c3)sc12	> 30	20000	0.265	–	–	–	–
COc1ccc(CNC(=O)c2cn3c(=O)n(Cc4ccccc4)c(=O)c(C)c3s2)cn1	> 30	> 10000	0.0175	–	–	–	–
Cc1c(=O)n(Cc2ccccc2)c(=O)n2cc(C(=O)NCc3ccc(F)cc3)sc12	> 30	> 100000	0.0245	–	–	–	–
Cc1cccc(CNC(=O)c2cn3c(=O)n(Cc4ccccc4)c(=O)c(C)c3s2)c1	> 100	19000	0.025	–	–	–	–

Structure (SMILES)	IC50 ([1]; Table 1b) [µM]	IC50 ([2]; Table 1b, read-out: MMP03 IC50) [nM]	IC50 ([3]; MMP13 IC50 (μM), Table 1b) [µM]	IC50 ([1]; Table II) [µM]	IC50 ([2]; Table II, read-out: MMP03 IC50)	IC50 ([3]; MMP13 IC50 (nM), Table II)	IC50 ([2]; MMP03 IC50 (nM), Table II) [nM]
Cc1c(=O)n(Cc2ccccc2)c(=O)n2cc(C(=O)NCc3ccc(C(F)(F)F)cc3)sc12	> 30	> 100000	2.21	–	–	–	–
COc1ccc(CNC(=O)c2cn3c(=O)n(Cc4ccccc4)c(=O)c(C)c3s2)cc1F	> 100	12000	0.025	–	–	–	–
Cc1c(=O)n(Cc2ccccc2)c(=O)n2cc(C(=O)NCc3cccc(F)c3)sc12	> 30	> 30000	0.12	–	–	–	–
Cc1ccc(CNC(=O)c2cn3c(=O)n(Cc4ccccc4)c(=O)c(C)c3s2)cc1	> 30	19000	0.225	–	–	–	–
Cc1c(=O)n(Cc2ccccc2)c(=O)n2cc(C(=O)NCc3ccc(Cl)cc3)sc12	> 30	23000	0.0869	–	–	–	–
Cc1c(=O)n(Cc2ccccc2)c(=O)n2cc(C(=O)NCc3ccc(F)c(F)c3)sc12	> 100	> 30000	0.029	–	–	–	–
COc1ccc(CNC(=O)c2cn3c(=O)n(Cc4ccccc4)c(=O)c(C)c3s2)cc1	> 30	16000	0.0217	–	–	–	–
Cc1c(=O)n(Cc2ccccc2)c(=O)n2cc(C(=O)NCc3ccc(OC(F)(F)F)cc3)sc12	> 30	> 100000	0.815	–	–	–	–
CC#CCn1c(=O)c(C)c2sc(C(=O)NCc3ccc(F)cc3)cn2c1=O	> 100	> 30000	0.315	–	–	–	–
O=C(NCc1ccccc1)c1cn2c(=O)n(Cc3ccc(Cl)c(Cl)c3)c(=O)cc2s1	> 30	> 30000	0.293	–	–	–	–
Cc1c(=O)n(Cc2ccc(Cl)cc2)c(=O)n2cc(C(=O)NCc3ccncc3)sc12	> 30	> 30000	0.053	–	–	–	–
O=C(NCc1ccc(Cl)c(Cl)c1)c1cn2c(=O)n(Cc3ccc(Cl)cc3)c(=O)cc2s1	> 30	> 100000	4.3	–	–	–	–
O=C(NCc1ccccc1)c1cn2c(=O)n(Cc3ccc(Cl)cc3)c(=O)cc2s1	> 30	43000	0.415	–	–	–	–
Cc1c(=O)n(Cc2ccc(C#N)cc2)c(=O)n2cc(C(=O)NCc3ccc(F)cc3)sc12	> 100	25000	0.023	–	–	–	–
Cc1c(=O)n(Cc2ccc3cc(F)ccc3n2)c(=O)n2cc(C(=O)NCc3ccc(F)cc3)sc12	> 30	18000	0.086	–	–	–	–
Cc1c(=O)n(Cc2ccccc2)c(=O)n2cc(C(=O)NCc3cccnc3)sc12	> 100	> 30000	0.225	–	–	–	–
Cc1c(=O)n(Cc2ccc3oc(=O)ccc3c2)c(=O)n2cc(C(=O)NCc3ccc(F)cc3)sc12	> 30	> 30000	0.012	–	–	–	–
Cc1c(=O)n(Cc2ccc(-c3nn[nH]n3)cc2)c(=O)n2cc(C(=O)NCc3ccc(F)cc3)sc12	> 100	16000	0.0009	–	–	–	–
Cc1nc(Cn2c(=O)c(C)c3sc(C(=O)NCc4ccc(F)cc4)cn3c2=O)cs1	> 100	> 30000	0.77	–	–	–	–
Cc1c(=O)n(Cc2ccc(C(=O)N3CCOCC3)cc2)c(=O)n2cc(C(=O)NCc3ccc(F)cc3)sc12	> 30	> 30000	0.011	–	–	–	–

Structure (SMILES)	IC50 ([1]; Table 1b) [µM]	IC50 ([2]; Table 1b, read-out: MMP03 IC50) [nM]	IC50 ([3]; MMP13 IC50 (μM), Table 1b) [µM]	IC50 ([1]; Table II) [µM]	IC50 ([2]; Table II, read-out: MMP03 IC50)	IC50 ([3]; MMP13 IC50 (nM), Table II)	IC50 ([2]; MMP03 IC50 (nM), Table II) [nM]
O=C(OCc1ccc2nsnc2c1)c1cccc(C(=O)OCc2ccc3nsnc3c2)c1	–	–	–	> 100	> 30000 nM	–	–
COc1ccc(CNC(=O)c2cccc(C(=O)NCc3ccc4c(c3)OCO4)c2)cc1	–	–	–	> 100	–	1.65 µM	> 100000
O=C(NCc1ccccc1)c1cccc(C(=O)NCc2ccc3c(c2)OCO3)c1	–	–	–	> 100	> 100000 nM	1.9 µM	–
O=C(NCc1ccc2c(c1)OCO2)c1cccc(C(=O)NCc2ccco2)c1	–	–	–	> 100	> 100000 nM	3.4 µM	–
COc1cccc(CNC(=O)c2cccc(C(=O)NCc3cccc(N)c3)c2)c1	–	–	–	> 100	> 100000 nM	0.935 µM	–
COc1cccc(CNC(=O)c2cccc(C(=O)NCc3cccnc3)c2)c1	–	–	–	> 100	> 100000 nM	7.93 µM	–
COc1cccc(CNC(=O)c2cccc(C(=O)NCc3ccncc3)c2)c1	–	–	–	> 100	> 100000 nM	1.4 µM	–
O=C(NCc1cccnc1)c1cccc(C(=O)NCc2ccc3c(c2)OCO3)c1	–	–	–	> 100	> 100000 nM	1.5 µM	–
CCOc1ccc(C(=O)NCc2ccc3c(c2)OCO3)cc1C(=O)NCc1ccc2c(c1)OCO2	–	–	–	51	20000 nM	0.493 µM	–
CCCOc1ccc(C(=O)NCc2ccc3c(c2)OCO3)cc1C(=O)NCc1ccc2c(c1)OCO2	–	–	–	> 100	27000 nM	1.45 µM	–
COc1ccc(C(=O)NCc2ccc3nsnc3c2)cc1C(=O)NCc1ccc2nsnc2c1	–	–	–	30	21000 nM	0.155 µM	–
COC(=O)Nc1cc(Cn2c(=O)c(C)c3sc(C(=O)NCc4ccc(F)cc4)cn3c2=O)on1	> 30	> 30000	0.205	–	–	–	–
COc1ccc(CNC(=O)c2ccc(OC)c(C(=O)NCc3ccc(OC)cc3)c2)cc1 [4-Methoxy-N,N′-bis-(4-methoxybenzyl)-isophthalamide]	–	–	–	–	82000 nM	0.25 µM	–
O=C(Nc1cccc(CO)c1)c1cccc(C(=O)Nc2cccc(CO)c2)c1 [N,N′-Bis-(3-hydroxymethyl-phenyl)-isophthalamide]	–	–	–	> 100	–	7.8 µM	–
Cc1c(=O)n(Cc2ccc(C(=O)O)cc2)c(=O)n2cc(C(=O)NCc3ccc(F)cc3)sc12 [Sodium Salt]	–	55500	0.002	–	–	–	–
O=C(NCc1ccc2c(c1)OCO2)c1cccc(C(=O)NCc2ccc3c(c2)OCO3)c1 [Synthesis Example 11, N,N-Bis-1,3-benzodioxol-5-ylmethyl-isophthalamide]	–	–	–	–	69000 nM and 81000 nM	0.33 µM and 0.683 µM	–
COc1ccc(CNC(=O)c2cn3c(=O)n(Cc4ccccc4)c(=O)c(C)c3s2)cn1 [hydrochloride]	–	20500	0.0208	–	–	–	–
Cc1c(=O)n(Cc2ccccc2)c(=O)n2cc(C(=O)NCc3cccnc3)sc12 [hydrochloride]	> 30	–	0.26	–	–	–	–
